Where two headings read alike, the source gives them in different places.
Assays:
[1] = tested on: Enterococcus faecalis ATCC 29212; experiment: Anti-bacterial activity, agar diffusion method; format: cell-based; details: at the concentration of 1 mg/ml
Method: (§1) In an embodiment, anti-bacterial activity of the compounds now disclosed was determined according to CLSI guidelines. The following bacteria were used: reference strains E. coli ATCC 10536, Staphylococcus aureus ATCC 6538, Bacillus subtilis ATCC 6633 and Enterococcus faecalis ATCC 29212; clinical strains of E. coli and Pseudomonas aeruginosa isolated in our laboratory; and strains of Lactobacillus rhamnosus and Lactobacillus plantarum also isolated in our laboratory. The Minimum Inhibitory Concentration (MIC) was determined by the agar diffusion method, in plates of Mueller-Hinton agar or Rogosa agar (for Lactobacilli). Briefly, 10^8 cfu/ml bacterial suspensions were prepared in sterile water and spread in the culture media. Sterile disks containing different concentrations of P3 were placed on the inoculated surface. Plates were incubated at 37° C. for 24 h or 48 h. Lactobacilli were incubated at microaerophilic conditions. A negative control made of sterile water was used. Disks of amoxicillin and imipenem were used as positive controls.

[2] = tested on: Escherichia coli ATCC 10536; experiment: Anti-bacterial activity, agar diffusion method; format: cell-based; details: at the concentration of 1 mg/ml
Method: as §1

[3] = tested on: Pseudomonas aeruginosa (Clinical strain); experiment: Anti-bacterial activity, agar diffusion method; format: cell-based; details: at the concentration of 1 mg/ml
Method: as §1

[4] = tested on: Escherichia coli (Clinical strain); experiment: Anti-bacterial activity, agar diffusion method; format: cell-based; details: at the concentration of 1 mg/ml
Method: as §1

[5] = tested on: Staphylococcus aureus ATCC 6538; experiment: Anti-bacterial activity, agar diffusion method; format: cell-based; details: at the concentration of 1 mg/ml
Method: as §1

Lactobacillus rhamnosus = experiment: Anti-bacterial activity, agar diffusion method; format: cell-based; details: at the concentration of 1 mg/ml
Method: as §1

[6] = tested on: Bacillus subtillis ATCC 6633; experiment: Anti-bacterial activity, agar diffusion method; format: cell-based, Bacillus subtilis; details: at the concentration of 1 mg/ml
Method: as §1

HIV-1 = details: for IC50 / IC90: TZM-bl cells
Method: (§2) In an embodiment, TZM-bl cells (AIDS Research and Reference Reagent Program, National Institutes of Health, USA) were cultured in complete growth medium that consists of Dulbecco's minimal essential medium (DMEM) supplemented with 10% fetal bovine serum (FBS), 100 U/ml of penicillin-streptomycin (Gibco/Invitrogen, USA), 1 mM of sodium pyruvate (Gibco/Invitrogen, USA), 2 mM of L-glutamine (Gibco/Invitrogen, USA) and 1 mM of non-essential amino acids (Gibco/Invitrogen, USA).
(§3) In an embodiment, the primary isolates 93AOHDC249, 93AOHDC250, 01PTHDECJN and 03PTHCC9, used in this study were previously isolated, titrated and characterized for co-receptor usage. HIV reference strain SG3.1 was obtained by transfection of HEK293T cells with pSG3.1 (HIV-1) plasmid using Fugene 6 reagent (Roche, Switzerland) according to manufacturer's instructions.
(§4) In an embodiment, the 50% tissue culture infectious dose (TCID50) of the virus was determined in a single-round viral infectivity assay using a luciferase reporter gene assay in TZM-bl cells and calculated using the statistical method of Reed and Muench^27.
(§5) In an embodiment, the antiviral activity of the compounds was determined in a single-round assay with TZM-bl cells as previously described ^26. Cells were infected with 200 TCID50 of virus in the presence of serial fold dilutions of the BSS compounds in GM, supplemented with DEAE-dextran (19.7 μg/ml). After 48 h of infection, luciferase expression was quantified with the One-Glow luciferase assay substrate reagent (Promega, USA) according to manufacturer's instructions. Briefly, a volume of reagent equal to that of the culture medium in each well was added. For 96-well plates, typically 100 μl of reagent is added to the cells grown in 100 μl of medium. After an incubation of 3 minutes at room temperature to allow complete cell lysis luminescence was measured in Tecan Infinite M200. Background luminescence was measured by using control wells that contained only target cells and GM. Maraviroc (CCR5 antagonist), T1249 (fusion inhibitor) and AMD3100 (CXCR4 antagonist) were used as positive controls of the antiviral activity. At least two independent experiments were performed for each analysis and each assay was set up in triplicate wells.
(§6) In an embodiment, dose-response curves were estimated from the percentage of inhibition of infection (y-axis) against logo of concentration of each compound (x-axis) using the sigmoidal dose-response equation (variable slope) in GraphPad Prism version 5.00 for Windows (GraphPad Software, San Diego Calif. USA, www.graphpad.com). IC50 and IC90 values were determined from this curve. IC50 and IC90 values correspond to the concentration of compound that inhibits viral replication in 50% and 90%, respectively.

HIV-2 = tested on: HIV-2
Method: as §2, §3, §4, §5, §6

TZM-bl cells = experiment: Cellular viability assay (alamarBlue) in TZM-bl cells
From the text: In an embodiment, the cellular cytotoxicity of 17 spiro-β-lactams was investigated in TZM-bl cells using the AlamarBlue assay as recommended by the manufacturer (Invitrogen, USA). TZM-bl, previously designated JC53-bl (clone 13) is a HeLa cell line. The parental cell line (JC.53) stably expresses large amounts of CD4, CCR5 and CXCR4. The TZM-bl cell line was generated from JC.53 cells by introducing separate integrated copies of the luciferase and […] genes under control of the HIV-1 promoter. The TZM-bl cell line is highly sensitive to infection with diverse isolates of HIV.
In an embodiment, the cellular viability assay was carried out as follows: the potential in vitro cytotoxicity of all BSS compounds was evaluated in TZM-bl cells. TZM-bl cells (10000 cells/well in 96-well plates) were incubated in absence or presence of serial-two-fold dilutions of the compounds in growth medium (GM), with starting concentration of 100 μg/ml and a final concentration of 0.781 μg/ml. After 48 hours, cell viability was examined with alamarBlue reagent (Invitrogen, USA) according to manufacturer's instructions. Briefly, 10 μl of alamarBlue reagent was added to each well. After 4 hours at 37° C., the fluorescence was measured in Tecan Infinite M200 (excitation wavelength 550 nm and emission wavelength 600 nm).
In an embodiment, at least two independent experiments have been performed for each cytotoxicity analysis.
In an embodiment, for each assay there were medium controls (only growth medium), cell controls (cells without test compound) and cytotoxicity controls (a compound that kill cells—SDS).

[7] = 01PTHDECJN, CCR5 tropic HIV-1 primary isolate
[8] = SG3.1, CXCR4 tropic HIV-1 adapted isolate
[9] = 03PTHCC19, CCR5 tropic HIV-2 isolate, TZM-bl cells, wa = without antiviral activity
[10] = 03PTHCC19, CCR5 tropic HIV-2 isolate, wa = without antiviral activity
[11] = 93AOHDC249, CCR5 tropic HIV-1 primary isolate
[12] = 93AOHDC250, HIV-1 primary isolate
[13] = HIV-2 primary isolate 00PTHCC20, X4, resistant to ABC, ZDV, d4T, ddl, LPV
[14] = HIV-2 primary isolate 00PTHDECT, R5/X4, resistant to DTG
[15] = HIV-2 primary isolate 03PTHCC20, X4, resistant to ABC, ZDV, d4T, ddl, LPV
[16] = HIV-2 primary isolate 03PTHSM9, X4, resistant to SQV, LPV, DRV and TAF
[17] = HIV-2 primary isolate 10PTHSJIG, R5, resistant to RAL, DTG, LPV, SQV, DRV and all NRTIs
[18] = HIV-2 primary isolate 15PTHCEC, X4, resistant to RAL, DTG, LPV, SQV, DRV, ABC, ddl, TDF, TAF, 3TC, d4T and FTC
[19] = HIV-2 primary isolate 15PTHSJIG, R5, resistant to RAL, DTG, 3TC and FTC
[20] = Table 3, HIV-2 isolate 03PTHCC19, R5, sensitive (control isolate), TZM-bl cells

COC(=O)C1=C[C@@]2(N=N1)C(=O)N1[C@@H](C(=O)O)C(C)(C)S[C@@H]12 [BSS-593, (2,3′R,5R)-5′-(methoxycarbonyl)-3,3-dimethyl-7-oxo-4-thia-1-azaspiro[bicyclo[3.2.0]heptane-6,3′-pyrazole]-2-carboxylic acid]
inhibitory activity [1]: no inhibitory activity
inhibitory activity [2]: no inhibitory activity
inhibitory activity [3]: no inhibitory activity
inhibitory activity [4]: no inhibitory activity
inhibitory activity [5]: no inhibitory activity
inhibitory activity (Lactobacillus rhamnosus): no inhibitory activity
inhibitory activity [6]: no inhibitory activity
anti-HIV activity against HIV-1 (in words) (HIV-1): only active against HIV-1
MPI (maximum percentage of inhibition) (HIV-1; [7]): 58%
TI (in vitro therapeutic index, CC50/IC50) (HIV-1; [7]): 4553.31
IC50 (HIV-1; [7]): 35 nM
MPI (maximum percentage of inhibition) (HIV-1; [8]): 84%
TI (in vitro therapeutic index, CC50/IC50) (HIV-1; [8]): 13144.76
IC50 (HIV-1; [8]): 12 nM
anti-HIV activity against HIV-2 (in words) (HIV-2): only active against HIV-1
IC50 (HIV-2; [9]): wa
IC90 (HIV-2; [9]): wa
MPI (maximum percentage of inhibition) (HIV-2; [10]): wa
CC50 (TZM-bl cells; Table 2, TZM-bl cells, 48 hours, alamarBlue): 158000 nM
CC50 (TZM-bl cells; read-out: CC50 (cytotoxic concentration 50%), Table 1, TZM-bl cells, 48 hours, alamarBlue): 158000 nM

CC1(C)S[C@H]2N(C(=O)[C@]23CC=C(C(=O)OCc2ccccc2)[C@@H]3C(=O)c2ccccc2)[C@H]1C(=O)OC(c1ccccc1)c1ccccc1 [BSS-730A]
inhibitory activity [1]: no inhibitory activity
inhibitory activity [2]: no inhibitory activity
inhibitory activity [3]: no inhibitory activity
inhibitory activity [4]: no inhibitory activity
inhibitory activity [5]: no inhibitory activity
inhibitory activity (Lactobacillus rhamnosus): no inhibitory activity
inhibitory activity [6]: no inhibitory activity
anti-HIV activity against HIV-1 (in words) (HIV-1): potent activity
MPI (maximum percentage of inhibition) (HIV-1; [11]): 99%
TI (in vitro therapeutic index, CC50/IC50) (HIV-1; [11]): 2946.32
IC50 (HIV-1; [11]): 26 nM
IC90 (HIV-1; [11]): 118 nM
MPI (maximum percentage of inhibition) (HIV-1; [12]): 94%
TI (in vitro therapeutic index, CC50/IC50) (HIV-1; [12]): 20247.69
IC50 (HIV-1; [12]): 4 nM
IC90 (HIV-1; [12]): 19.7 nM
inhibition (HIV-1; HIV-1, concentration of 15.21 μM): about 100%
MPI (maximum percentage of inhibition) (HIV-1; [8]): 99%
TI (in vitro therapeutic index, CC50/IC50) (HIV-1; [8]): 5584.30
IC50 (HIV-1; [8]): 14 nM
IC90 (HIV-1; [8]): 25.2 nM
anti-HIV activity against HIV-2 (in words) (HIV-2): potent activity
TI (in vitro therapeutic index, CC50/IC50) (HIV-2; 03PTHCC19, CCR5 tropic HIV-2 isolate): 14029.58
IC50 (HIV-2; [9]): 5 nM
IC90 (HIV-2; [9]): 145 nM
MPI (maximum percentage of inhibition) (HIV-2; [10]): 99%
inhibition (HIV-2; HIV-2, concentration of 15.21 μM): about 100%
IC50 (HIV-2; [13]): 18 nM
IC90 (HIV-2; [13]): 73 nM
IC50 (HIV-2; [14]): 23 nM
IC90 (HIV-2; [14]): 57 nM
IC50 (HIV-2; [15]): 19 nM
IC90 (HIV-2; [15]): 95 nM
IC50 (HIV-2; [16]): 16 nM
IC90 (HIV-2; [16]): 116 nM
IC50 (HIV-2; [17]): 12 nM
IC90 (HIV-2; [17]): 32 nM
IC50 (HIV-2; [18]): 17 nM
IC90 (HIV-2; [18]): 51 nM
IC50 (HIV-2; [19]): 18 nM
IC90 (HIV-2; [19]): 56 nM
IC50 (HIV-2; [20]): 8 nM
IC90 (HIV-2; [20]): 64 nM
CC50 (TZM-bl cells): 76800 nM

From patent US11666559B2, “Spiro-lactam compounds, process and uses thereof” (UNIVERSIDADE DE COIMBRA, priority 2017, dated 2023)
